Assay results taken from patent US8158633B2, “Phenyl-substituted pyrazolopyrimidines” (Boehringer Ingelheim International GmbH, priority 2002, dated 2012).

Assays:
PDE9A [1] = molecular target: T1, PDE9A (Homo sapiens, UniProt O76083); settings: isolated enzyme, concentrations of up to 100 μM; cited from earlier work
Murine PDE9A = molecular target: T2, Murine PDE9A (Mus musculus, UniProt O70628); settings: concentrations below 200 μM; cited from earlier work
T2 sequence (O70628 1-534): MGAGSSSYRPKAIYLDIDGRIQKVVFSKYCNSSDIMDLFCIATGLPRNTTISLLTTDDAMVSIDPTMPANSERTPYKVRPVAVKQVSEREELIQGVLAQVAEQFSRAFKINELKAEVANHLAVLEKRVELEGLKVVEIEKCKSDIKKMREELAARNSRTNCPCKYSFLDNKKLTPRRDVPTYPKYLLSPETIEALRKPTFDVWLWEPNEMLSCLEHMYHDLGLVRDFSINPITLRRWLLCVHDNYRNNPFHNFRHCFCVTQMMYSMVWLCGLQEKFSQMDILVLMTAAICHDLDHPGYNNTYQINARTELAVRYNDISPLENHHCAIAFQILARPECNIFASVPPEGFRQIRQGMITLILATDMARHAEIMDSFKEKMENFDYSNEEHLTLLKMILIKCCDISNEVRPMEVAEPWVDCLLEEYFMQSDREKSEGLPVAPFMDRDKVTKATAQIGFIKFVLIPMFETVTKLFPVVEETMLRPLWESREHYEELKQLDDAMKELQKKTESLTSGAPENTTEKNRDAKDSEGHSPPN

PDE9A [2] = molecular target: T1, PDE9A; experiment: PDE inhibition: recombinant PDE9A, [3H]cGMP scintillation proximity assay; type: biochemical; parameters: made in house; host or cells: Sf9 cells, pFASTBAC baculovirus expression system; settings: recombinant PDE9A expressed in Sf9 cells; read-out: IC50 (PDE9A-inhibiting effect)
Source text: Recombinant PDE1C (GenBank/EMBL Accession Number: NM_005020, Loughney et al. J. Biol. Chem. 1996 271, 796-806), PDE2A (GenBank/EMBL Accession Number: NM_002599, Rosman et al. Gene 1997 191, 89-95), PDE3B (GenBank/EMBL Accession Number: NM_000922, Miki et al. Genomics 1996, 36, 476-485), PDE4B (GenBank/EMBL Accession Number: NM_002600, Obernolte et al. Gene. 1993, 129, 239-247), PDE5A (GenBank/EMBL Accession Number: NM_001083, Loughney et al. Gene 1998, 216, 139-147), PDE7B (GenBank/EMBL Accession Number: NM_018945, Hetman et al. Proc. Natl. Acad. Sci. U.S.A. 2000, 97, 472-476), PDE8A (GenBank/EMBL Accession Number: AF—056490, Fisher et al. Biochem. Biophys. Res. Commun. 1998 246, 570-577), PDE9A (Fisher et al., J. Biol. Chem, 1998, 273 (25): 15559-15564), PDE10A (GenBank/EMBL Accession Number: NM_06661, Fujishige et al. J Biol Chem. 1999, 274, 18438-45), PDE11A (GenBank/EMBL Accession Number: NM_016953, Fawcett et al. Proc. Natl. Acad. Sci. 2000, 97, 3702-3707) were expressed in Sf9 cells with the aid of the pFASTBAC baculovirus expression system (GibcoBRL).
The test substances are dissolved in 100% DMSO and serially diluted to determine their in vitro effect on PDE 9A. Typically, serial dilutions from 200 μM to 1.6 μM are prepared (resulting final concentrations in the assay: 4 μM to 0.032 μM). 2 μL portions of the diluted substance solutions are introduced into the wells of microtiter plates (Isoplate; Wallac Inc., Atlanta, Ga.). Then 50 μL of a dilution of the PDE9A preparation described above are added. The dilution of the PDE9A preparation is chosen so that less than 70% of the substrate is converted during the subsequent incubation (typical dilution: 1:10000; dilution buffer: 50 mM Tris/HCl pH 7.5, 8.3 mM MgCl2, 1.7 mM EDTA, 0.2% BSA). The substrate, [8-^3H] guanosine 3′,5′-cyclic phosphate (1 μCi/μL; Amersham Pharmacia Biotech., Piscataway, N.J.) is diluted 1:2000 with assay buffer (50 mM Tris/HCl pH 7.5, 8.3 mM MgCl2, 1.7 mM EDTA) to a concentration of 0.0005 μCi/μL. The enzyme reaction is finally started by adding 50 μL (0.025 μCi) of the diluted substrate. The assay mixtures are incubated at room temperature for 60 min and the reaction is stopped by adding 25 μl of a PDE9A inhibitor (e.g. the inhibitor from preparation example 1, final concentration 10 μM) dissolved in assay buffer. Immediately thereafter, 25 μL of a suspension containing 18 mg/mL Yttrium Scintillation Proximity Beads (Amersham Pharmacia Biotech., Piscataway, N.J.) are added. The microtiter plates are sealed with a film and left to stand at room temperature for 60 min. The plates are then measured for 30 s per well in a Microbeta scintillation counter (Wallac Inc., Atlanta, Ga.). IC50 values are determined from the graphical plot of the substance concentration versus the percentage inhibition.

T1 sequence (O76083 whole entry): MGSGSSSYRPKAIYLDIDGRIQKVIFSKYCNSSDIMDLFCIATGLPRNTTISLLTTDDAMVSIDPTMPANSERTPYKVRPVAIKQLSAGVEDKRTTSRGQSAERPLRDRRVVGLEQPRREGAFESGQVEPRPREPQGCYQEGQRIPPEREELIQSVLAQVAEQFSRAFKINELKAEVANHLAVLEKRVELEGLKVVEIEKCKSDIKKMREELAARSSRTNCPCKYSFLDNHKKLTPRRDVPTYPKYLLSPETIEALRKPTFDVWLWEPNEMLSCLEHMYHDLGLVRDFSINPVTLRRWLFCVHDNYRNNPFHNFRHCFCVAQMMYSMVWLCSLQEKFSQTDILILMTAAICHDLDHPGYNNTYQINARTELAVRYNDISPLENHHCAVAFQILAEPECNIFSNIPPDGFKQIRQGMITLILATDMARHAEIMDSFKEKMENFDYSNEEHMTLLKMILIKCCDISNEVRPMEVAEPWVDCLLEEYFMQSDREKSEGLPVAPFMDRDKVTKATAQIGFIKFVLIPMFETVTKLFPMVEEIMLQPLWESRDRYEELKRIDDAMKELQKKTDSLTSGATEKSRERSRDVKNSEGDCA

CC(=O)Nc1ccc(-c2c[nH]c(=O)cn2)cc1 [SKF94120]
inhibition of human PDE9A (PDE9A [1]): no inhibition

CC(C)Cn1c(=O)n(C)c(=O)c2[nH]cnc21 [IBMX]
inhibition of human PDE9A (PDE9A [1]): no inhibition
inhibition of murine PDE9A (Murine PDE9A): not inhibited

OCCN(CCO)c1nc(N2CCCCC2)c2nc(N(CCO)CCO)nc(N3CCCCC3)c2n1 [dipyridamole]
inhibition of human PDE9A (PDE9A [1]): no inhibition

O=c1[nH]c(Cc2cccc(Cl)c2)nc2c1cnn2C1CCCC1 [Example 1, 6-(3-Chlorobenzyl)-1-cyclopentyl-1,5-dihydro-4H-pyrazolo[3,4-d]pyrimidin-4-one]
melting point: 159 °C
IC50 (PDE9A [2]): 20 nM

O=c1[nH]c(Cc2ccccc2F)nc2c1cnn2C1CCCC1 [Example 2, 6-(2-Fluorobenzyl)-1-cyclopentyl-1,5-dihydro-4H-pyrazolo[3,4-d]pyrimidin-4-one]
melting point: 180 °C
IC50 (PDE9A [2]): 30 nM

COc1ccc(C2CNC(=O)C2)cc1OC1CCCC1 (stereo not drawn) [rolipram]
inhibition of human PDE9A (PDE9A [1]): no inhibition

Cc1cccc(Cc2nc3c(cnn3C3CCCC3)c(=O)[nH]2)c1 [Example 8, 6-(3-Methylbenzyl)-1-cyclopentyl-1,5-dihydro-4H-pyrazolo[3,4-d]pyrimidin-4-one]
melting point: 152 °C

CCC(CC)n1ncc2c(=O)[nH]c(Cc3cccc(C(F)(F)F)c3)nc21 [Example 11, 1-(1-Ethylpropyl)-6-[3-(trifluoromethyl)benzyl]-1,5-dihydro-4H-pyrazolo[3,4-d]-pyrimidin-4-one]
melting point: 120 °C

CCOC(=O)C1=C[C@]2(CC)CCCN3CCc4c(n1c1ccccc41)[C@@H]32 [vinpocetine]
inhibition of human PDE9A (PDE9A [1]): no inhibition

S=c1[nH]c(Cc2cccc(Cl)c2)nc2c1cnn2C1CCCC1 [Example 13, 6-(3-Chlorobenzyl)-1-cyclopentyl-1,5-dihydro-4H-pyrazolo[3,4-d]pyrimidine-4-thione]
melting point: 154 °C
IC50 (PDE9A [2]): 30 nM

O=c1[nH]c(Cc2ccc(Cl)c(Cl)c2)nc2c1cnn2C1CCCC1 [Example 4, 6-(3,4-Dichlorobenzyl)-1-cyclopentyl-1,5-dihydro-4H-pyrazolo[3,4-d]pyrimidin-4-one]
melting point: 198 °C
IC50 (PDE9A [2]): 30 nM

O=c1[nH]c(Cc2cccc(Cl)c2Cl)nc2c1cnn2C1CCCC1 [Example 6, 6-(2,3-Dichlorobenzyl)-1-cyclopentyl-1,5-dihydro-4H-pyrazolo[3,4-d]pyrimidin-4-one]
melting point: 181 °C

CCC(CC)n1ncc2c(=O)[nH]c(Cc3cccc(C)c3)nc21 [Example 10, 6-(3-Methylbenzyl)-1-(1-ethylpropyl)-1,5-dihydro-4H-pyrazolo[3,4-d]pyrimidin-4-one]
melting point: 128 °C
IC50 (PDE9A [2]): 64 nM

O=c1[nH]c(Cc2cc(Cl)cc(Cl)c2)nc2c1cnn2C1CCCC1 [Example 5, 6-(3,5-Dichlorobenzyl)-1-cyclopentyl-1,5-dihydro-4H-pyrazolo[3,4-d]pyrimidin-4-one]
melting point: 177 °C

O=c1[nH]c(Cc2cccc(Br)c2)nc2c1cnn2C1CCCC1 [Example 3, 6-(3-Bromobenzyl)-1-cyclopentyl-1,5-dihydro-4H-pyrazolo[3,4-d]pyrimidin-4-one]
melting point: 159 °C

CCC(CC)n1ncc2c(=O)[nH]c(Cc3cccc(Cl)c3)nc21 [Example 7, 6-(3-Chlorobenzyl)-1-(1-ethylpropyl)-1,5-dihydro-4H-pyrazolo[3,4-d]pyrimidin-4-one]
melting point: 138 °C

O=c1[nH]c(Cc2ccccc2OC(F)(F)F)nc2c1cnn2C1CCCC1 [Example 14, 1-Cyclopentyl-6-[2-(trifluoromethoxy)benzyl]-1,5-dihydro-4H-pyrazolo[3,4-d]-pyrimidin-4-one]
melting point: 161 °C

CCC(CC)n1ncc2c(=O)[nH]c(Cc3cc(Cl)ccc3Cl)nc21 [Example 9, 6-(2,5-Dichlorobenzyl)-1-(1-ethylpropyl)-1,5-dihydro-4H-pyrazolo[3,4-d]pyrimidin-4-one]
melting point: 134 °C
